Data as given in publication PMC5537602, “TRPA1 channel mediates organophosphate-induced delayed neuropathy” (Cell Discovery, 2017).

Tests used:
[1] = test system: mice; experiment: Transmission electron microscopy of local nerve fibers in mice; format: in vivo, mouse
Protocol: For mice, subcutaneous tissue from the site of exposure was removed and fixed by immediate immersion in ice-cold 2.5% glutaraldehyde. Subsequently, the samples were post-fixed in 1% OsO4 for 1 h, dehydrated with an ethanol series and embedded in epon resin. Sixty-nanometer ultra-thin sections were double stained with lead citrate and uranyl acetate and examined using an electron microscopy.

[2] = target: T1, cTRPA1 (Gallus gallus, UniProt W8VTH6); experiment: Whole-cell patch-clamp, HEK293 cells expressing cTRPA1; format: cell-based, chicken
T1 sequence (W8VTH6 1-1126): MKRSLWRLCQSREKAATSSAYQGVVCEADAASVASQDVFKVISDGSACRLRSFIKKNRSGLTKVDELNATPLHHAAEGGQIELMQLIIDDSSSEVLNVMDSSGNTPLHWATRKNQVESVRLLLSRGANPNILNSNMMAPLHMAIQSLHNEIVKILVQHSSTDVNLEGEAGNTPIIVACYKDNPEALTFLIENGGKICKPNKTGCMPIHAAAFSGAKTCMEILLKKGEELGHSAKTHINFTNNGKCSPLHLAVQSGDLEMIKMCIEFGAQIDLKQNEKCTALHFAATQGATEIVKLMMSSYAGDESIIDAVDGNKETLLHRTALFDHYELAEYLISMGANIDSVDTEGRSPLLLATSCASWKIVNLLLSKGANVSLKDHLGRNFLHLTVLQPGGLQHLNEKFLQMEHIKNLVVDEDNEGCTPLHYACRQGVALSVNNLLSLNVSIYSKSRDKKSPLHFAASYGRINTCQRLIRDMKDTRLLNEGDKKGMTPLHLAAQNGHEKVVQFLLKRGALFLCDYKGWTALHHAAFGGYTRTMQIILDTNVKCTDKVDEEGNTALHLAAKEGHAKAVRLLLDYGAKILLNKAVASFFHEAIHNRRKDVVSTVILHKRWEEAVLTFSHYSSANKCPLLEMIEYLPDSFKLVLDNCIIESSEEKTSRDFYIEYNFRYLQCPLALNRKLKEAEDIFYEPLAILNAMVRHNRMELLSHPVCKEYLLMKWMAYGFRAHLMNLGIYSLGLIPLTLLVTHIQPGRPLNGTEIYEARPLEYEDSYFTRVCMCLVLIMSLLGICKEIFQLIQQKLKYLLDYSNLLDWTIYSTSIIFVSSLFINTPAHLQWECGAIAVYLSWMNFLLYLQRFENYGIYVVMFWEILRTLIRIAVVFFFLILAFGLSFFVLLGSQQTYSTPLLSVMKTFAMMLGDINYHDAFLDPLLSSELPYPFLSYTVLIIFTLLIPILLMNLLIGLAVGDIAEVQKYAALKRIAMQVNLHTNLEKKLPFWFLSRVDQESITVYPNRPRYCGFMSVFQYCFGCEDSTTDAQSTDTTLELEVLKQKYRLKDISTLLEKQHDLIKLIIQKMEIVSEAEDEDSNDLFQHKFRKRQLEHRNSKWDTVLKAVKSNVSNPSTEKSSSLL
Protocol: (§1) All cell culture reagents were purchased from Life Technologies. HEK293 cells were transfected transiently with the corresponding plasmids using lipofectamine 2000 (Life Technologies). Transfection efficiency was monitored by co-transfecting EGFP plasmid which codes for the enhanced green fluorescent protein. Electrophysiological recordings were performed between 24 and 36 h after transfection.
Whole-cell patch-clamp recordings in DRG neurons (small diameter, […]) and HEK293 cells were operated at room temperature (23–25 °C) using EPC-10 amplifier and Patch Master Software (HEKA). […] Currents were sampled at 10 kHz and low-pass filtered at 2.9 kHz. […] The calcium-free external solution contained (in mM) 140 NaCl, 5 KCl, 0.5 EGTA, 1 MgCl2, 10 Glucose and 10 HEPES, with pH adjusted to 7.4 by NaOH and osmolarity 300–310 mOsm. The 0.5 mM EGTA was replaced by 2 mM CaCl2 for the recordings in DRG neurons. TRPA1 currents development was monitored with repetitive injections of 300 ms duration voltage ramps from −100 to +100 mV every 2 s and the holding potential was set to 0 mV for 50 ms, existing in both sides of the voltage ramp. To record inward currents in DRG neurons, we conducted voltage clamp at holding membrane potential of −70 mV. Solutions were switched using a gravity-fed continuous focal perfusion system.

[3] = target: mTRPA1 (Mus musculus, UniProt Q8BLA8); experiment: Whole-cell patch-clamp, HEK293 cells expressing mTRPA1; format: cell-based; parameters: expressed in transfected cells; host or cells: HEK293
Protocol: as §1, with “Human embryonic kidney 293 (HEK293) cells were cultured in DMEM containing 10% (vol/vol) heat-inactivated fetal bovine serum, 100 units ml^−1 penicillin–streptomycin and 2 mM L-glutamine at 37 °C in a humidity-controlled sterile incubator with 5% CO2. All” for “All”
Whole-cell patch-clamp recordings in DRG neurons (small diameter, […]) and HEK293 cells were operated at room temperature (23–25 °C) using EPC-10 amplifier and Patch Master Software (HEKA). […] Currents were sampled at 10 kHz and low-pass filtered at 2.9 kHz. The internal solution was as follows (in mM): 140 CsCl, 10 HEPES, 5 EGTA, 0.1 CaCl2 and 1 MgCl2, with pH adjusted to 7.2 by CsOH and osmolarity 295–300 mOsm. The calcium-free external solution contained (in mM) 140 NaCl, 5 KCl, 0.5 EGTA, 1 MgCl2, 10 Glucose and 10 HEPES, with pH adjusted to 7.4 by NaOH and osmolarity 300–310 mOsm. The 0.5 mM EGTA was replaced by 2 mM CaCl2 for the recordings in DRG neurons. TRPA1 currents development was monitored with repetitive injections of 300 ms duration voltage ramps from −100 to +100 mV every 2 s and the holding potential was set to 0 mV for 50 ms, existing in both sides of the voltage ramp. To record inward currents in DRG neurons, we conducted voltage clamp at holding membrane potential of −70 mV. Solutions were switched using a gravity-fed continuous focal perfusion system.

Sequence of mTRPA1 (Q8BLA8 whole entry): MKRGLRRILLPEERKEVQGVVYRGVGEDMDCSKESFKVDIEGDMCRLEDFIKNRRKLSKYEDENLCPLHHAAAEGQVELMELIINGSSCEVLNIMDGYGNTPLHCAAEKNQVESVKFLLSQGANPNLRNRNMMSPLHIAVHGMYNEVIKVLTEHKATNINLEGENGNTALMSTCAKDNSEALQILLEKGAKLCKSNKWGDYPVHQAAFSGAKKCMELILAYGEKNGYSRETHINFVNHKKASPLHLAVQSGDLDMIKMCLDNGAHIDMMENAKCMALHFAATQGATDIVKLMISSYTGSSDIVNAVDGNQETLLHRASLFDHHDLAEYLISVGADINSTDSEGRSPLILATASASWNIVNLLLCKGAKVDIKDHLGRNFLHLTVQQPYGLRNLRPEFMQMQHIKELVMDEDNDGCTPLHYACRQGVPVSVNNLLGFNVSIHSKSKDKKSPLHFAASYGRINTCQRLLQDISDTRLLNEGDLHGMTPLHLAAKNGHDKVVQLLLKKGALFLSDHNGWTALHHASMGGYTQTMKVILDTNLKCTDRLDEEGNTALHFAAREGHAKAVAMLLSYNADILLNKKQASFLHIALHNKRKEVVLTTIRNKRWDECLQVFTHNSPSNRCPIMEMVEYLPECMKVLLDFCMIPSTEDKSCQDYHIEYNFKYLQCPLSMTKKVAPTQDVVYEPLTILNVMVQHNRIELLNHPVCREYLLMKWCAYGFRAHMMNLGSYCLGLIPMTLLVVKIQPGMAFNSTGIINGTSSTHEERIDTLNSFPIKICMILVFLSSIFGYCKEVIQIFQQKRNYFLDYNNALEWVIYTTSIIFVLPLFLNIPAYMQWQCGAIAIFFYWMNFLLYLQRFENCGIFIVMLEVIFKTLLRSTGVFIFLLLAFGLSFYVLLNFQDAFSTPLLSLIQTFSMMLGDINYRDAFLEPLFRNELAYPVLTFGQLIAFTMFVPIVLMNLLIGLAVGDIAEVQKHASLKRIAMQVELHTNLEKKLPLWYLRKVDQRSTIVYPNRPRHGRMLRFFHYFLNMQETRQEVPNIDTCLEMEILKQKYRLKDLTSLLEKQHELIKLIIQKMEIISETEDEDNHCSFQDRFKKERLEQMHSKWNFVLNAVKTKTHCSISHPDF

Compound | effect on malathion-induced myelin sheath damage (TEM) ([1]; HC030031 pretreatment) | block of malathion-elicited cTRPA1 currents ([2]; 10 μM HC030031) | block of agonist-elicited mTRPA1 currents ([3]; 10 μM HC030031, malathion or TOCP as agonist) | nerve fiber damage around the injection site (TEM) ([1]; WT mice, plantar injection, 5% AITC or 30% malathion) | EC50 [2] [µM] | activation of cTRPA1 whole-cell currents ([2]; calcium-free external solution) | activation of mTRPA1 whole-cell currents ([3]; 30 μM, calcium-free external solution)
CC(C)c1ccc(NC(=O)Cn2cnc3c2c(=O)n(C)c(=O)n3C)cc1 [HC030031] | significantly protected the myelin sheath | blocked | blocked |  |  |  | 
CCOC(=O)CC(SP(=S)(OC)OC)C(=O)OCC (stereo not drawn) [malathion, S-[1,2-bis (ethoxycarbonyl)ethyl] O, O-dimethyl phosphorodithioate] |  |  |  | damage of the myelin sheath | 10.8 ± 1.68 | large activation current | large activation current
